Test [1] deals with Trypanosoma cruzi. Kind of test: Antitrypanosomal activity against Trypanosoma cruzi CL Brener assessed as parasite viability after 5 days by MTT assay. It counts as functional. As to conditions: 120 h, read-out: ID50 (the source's name).
Test [2] deals with Trypanosoma cruzi. Put plainly: Antitrypanosomal activity against Trypanosoma cruzi Y assessed as parasite viability after 5 days by MTT assay. It counts as functional. As to conditions: 120 h, read-out: ID50 (the source's name). On the technique in general: Formazan colour is commonly taken as a measure of viable cells.
The test system of test [3] is Leishmania pifanoi. Put plainly: Antileishmanial activity against Leishmania pifanoi MHOM/VE/57/LV135 assessed as parasite viability after 5 days by MTT assay. As to conditions: 120 h, read-out: ID50 (the source's name). It counts as functional.
Test [4] concerns Trypanosoma cruzi. Put plainly: Antitrypanosomal activity against Trypanosoma cruzi Tulahuen 2 assessed as inhibition of epimastigotes growth after 5 days by MTT assay relative to control. It counts as functional. As to conditions: Tulahuen 2, 120 h, read-out: ID50 (the source's name).
A further test deals with Leishmania braziliensis. Kind of test: Antileishmanial activity against Leishmania braziliensis MHOM/BR/00/LTB300 assessed as parasite viability after 5 days by MTT assay. As to conditions: 120 h, read-out: ID50 (the source's name). It counts as functional.
Test [5] relates to Trypanosoma cruzi. Kind of test: Antitrypanosomal activity against Trypanosoma cruzi CL Brener in Vero cells assessed as infection. It counts as functional.
Test [6] has as its system Trypanosoma cruzi. Put plainly: Antitrypanosomal activity against Trypanosoma cruzi CL Brener assessed as lysis of trypomastigotes at 50 uM after 19 hrs relative to control. It counts as functional.
Test [7] relates to Trypanosoma cruzi. Kind of test: Antitrypanosomal activity against Trypanosoma cruzi CL Brener clone assessed as lysis of trypomastigotes at 10 uM after 26 hrs relative to control. It counts as functional.
For test [8], the system named is Trypanosoma cruzi. Kind of test: Inhibition of Trypanosoma cruzi Y mitochondrial dehydrogenase activity by MTT assay relative to control.
Test [9] concerns Trypanosoma cruzi. Put plainly: Antitrypanosomal activity against Trypanosoma cruzi CL Brener clone assessed as lysis of trypomastigotes at 10 uM after 3 hrs relative to control. It counts as functional.
In test [10] the test system is Trypanosoma cruzi. Kind of test: Antitrypanosomal activity against Trypanosoma cruzi CL Brener assessed as lysis of trypomastigotes at 10 uM after 2 hrs relative to control. It counts as functional.
Test [11] has as its system Trypanosoma cruzi. Put plainly: Antitrypanosomal activity against Trypanosoma cruzi CL Brener in Vero cells assessed as number of amastigote infected. It counts as functional.
Test [12] concerns Trypanosoma cruzi. Put plainly: Antitrypanosomal activity against Trypanosoma cruzi CL Brener assessed as lysis of trypomastigotes at 25 uM after 19 hrs relative to control. It counts as functional.
For test [13], the system named is Trypanosoma cruzi. Kind of test: Antitrypanosomal activity against Trypanosoma cruzi CL Brener in Vero cells assessed as endocytic index at 2.5 uM. It counts as functional.
A short description of test [14]: Inhibition of nitric oxide production by Griess assay. As to conditions: dose or concentration not given here. It counts as functional. Also noted: concentration or dose not given beside the values.
The test system of test [15] is Trypanosoma cruzi. Put plainly: Antitrypanosomal activity against Trypanosoma cruzi CL Brener assessed as lysis of trypomastigotes at 50 uM after 2 hrs relative to control. It counts as functional.
The subject of test [16] is Leishmania pifanoi. Put plainly: Antileishmanial activity against Leishmania pifanoi MHOM/VE/57/LV135 at 5.0 uM after 5 days assessed as parasite viability by MTT assay. It counts as functional. As to conditions: 120 h, read-out: GI.
Test [17] concerns Trypanosoma cruzi. Kind of test: Antitrypanosomal activity against Trypanosoma cruzi Tulahuen 2 assessed as inhibition of growth of epimastigotes at 25 uM after 5 days by MTT assay relative to control. The conditions noted are these: Tulahuen 2, 120 h, read-out: GI. It counts as functional.
Test [18] concerns Trypanosoma cruzi. Kind of test: Antitrypanosomal activity against Trypanosoma cruzi CL Brener assessed as lysis of trypomastigotes at 25 uM after 2 hrs relative to control. It counts as functional.

Each structure is given as a SMILES string. Calls of active or inactive are those of the source. The calls are words filed in the database; no cut-off is given here. Some results are limits rather than exact numbers.

Regarding `C=CS(=O)(=O)c1no[n+]([O-])c1-c1ccccc1`, the IC50 with Trypanosoma cruzi [1] was 8.2 µM; in the test with Trypanosoma cruzi [2] it was 11.1 µM; with Leishmania pifanoi [3], above 50 µM; in the test on Trypanosoma cruzi [4] it was 5.5 µM; in the test with Leishmania braziliensis, 39.1 µM.

In the case of `NC(=O)CS(=O)(=O)c1c(-c2ccccc2)no[n+]1[O-]`, the IC50 is 3.7 µM in the test on Trypanosoma cruzi [1]; 6 µM in the test on Trypanosoma cruzi [2]; above 50 µM with Leishmania pifanoi [3]; 10 µM in the test with Trypanosoma cruzi [4]; 14.3 µM in the test with Leishmania braziliensis. For the same compound, the Activity was 6.3% in the test on Trypanosoma cruzi [5]; 100% with Trypanosoma cruzi [6]; 100% with Trypanosoma cruzi [7]; 5% in the test on Trypanosoma cruzi [9]; 0% with Trypanosoma cruzi [10]; 1.6 with Trypanosoma cruzi [11]. For the same compound, the Activity is given as 100% with Trypanosoma cruzi [12] and 10.1 in the test on Trypanosoma cruzi [13]. Also, in the test on Trypanosoma cruzi [8], the outcome was Active.

`C=CS(=O)(=O)c1nonc1-c1ccccc1`: the IC50 in the test on Trypanosoma cruzi [1] is 22.2 µM; in the test with Trypanosoma cruzi [2] it was 23.5 µM; with Leishmania pifanoi [3], 20.4 µM; in the test with Trypanosoma cruzi [4], 6.5 µM; in the test with Leishmania braziliensis, 8 µM.

The inhibition is the change of the read-out against control, counted positive when it falls. In the case of `CCOCCS(=O)(=O)c1no[n+]([O-])c1-c1ccccc1`, the IC50 in the test on Trypanosoma cruzi [1] is above 50 µM; in the test with Trypanosoma cruzi [2] it was above 50 µM; with Leishmania pifanoi [3], above 50 µM; in the test on Trypanosoma cruzi [4], 17 µM; with Leishmania braziliensis it was above 50 µM. In addition, in test [14], the inhibition is below 1%.

As to `CCOCCS(=O)(=O)c1c(-c2ccccc2)no[n+]1[O-]`, the IC50 in the test on Trypanosoma cruzi [1] worked out at 1.5 µM; with Trypanosoma cruzi [2] it was 3.4 µM; in the test with Leishmania pifanoi [3], 4.2 µM; with Trypanosoma cruzi [4], 10 µM; with Leishmania braziliensis it was 4.1 µM. For the same compound, the inhibition in test [14] was 10%. For the same compound, the values for the Activity in the test on Trypanosoma cruzi [6], with Trypanosoma cruzi [15] and with Trypanosoma cruzi [12] were 100%, 68% and 100%, respectively. Besides, in the test on Trypanosoma cruzi [8], the result was Active.

Turning to `CCSCCS(=O)(=O)c1no[n+]([O-])c1-c1ccccc1`, the IC50 in the test on Trypanosoma cruzi [1] is 37.1 µM; in the test on Trypanosoma cruzi [2] it was 6 µM; in the test on Leishmania pifanoi [3], above 50 µM; in the test on Trypanosoma cruzi [4], 5 µM; in the test on Leishmania braziliensis, above 50 µM. In addition, the inhibition in test [14] was below 1%.

With `COc1ccccc1NCCS(=O)(=O)c1c(-c2ccccc2)no[n+]1[O-]`, the IC50 with Trypanosoma cruzi [1] is 5 µM; with Trypanosoma cruzi [2] it was 9.2 µM; in the test on Leishmania pifanoi [3] it was 6.5 µM; in the test with Trypanosoma cruzi [4], 7.5 µM; in the test with Leishmania braziliensis, 13.7 µM. In [14], this compound had an inhibition of 20.8%.

Consider `NC(=O)CS(=O)(=O)c1no[n+]([O-])c1-c1ccccc1`, for which the IC50 is above 50 µM in the test on Trypanosoma cruzi [1]; 48 µM in the test on Trypanosoma cruzi [2]; above 50 µM with Leishmania pifanoi [3]; 25 µM with Trypanosoma cruzi [4]; above 50 µM in the test on Leishmania braziliensis.

As for `CCCCCCCCCCCCCCCCOP(=O)([O-])OCC[N+](C)(C)C` [MILTEFOSINE], the inhibition of growth at 5 µM with Leishmania pifanoi [16] is 85.5%. Also, the IC50 with Leishmania braziliensis came out at 9 µM.

On to `O=S(=O)(c1ccccc1)c1c(-c2ccccc2)no[n+]1[O-]`, for which the IC50 was 4.2 µM with Trypanosoma cruzi [1]; 4.3 µM with Trypanosoma cruzi [2]; 3.8 µM in the test with Leishmania pifanoi [3]; 5 µM in the test with Trypanosoma cruzi [4]; 1.6 µM in the test on Leishmania braziliensis. Moreover, the inhibition in test [14] turned out to be 10.3%.

Turning to `COc1ccccc1NCCS(=O)(=O)c1no[n+]([O-])c1-c1ccccc1`, the IC50 with Trypanosoma cruzi [1] came to 7.2 µM; in the test with Trypanosoma cruzi [2], 26.2 µM; in the test with Leishmania pifanoi [3] it was 33.8 µM; with Trypanosoma cruzi [4], 8 µM; in the test on Leishmania braziliensis, 9.9 µM. This compound yielded an inhibition in [14] below 1%.

Regarding `CCOCCS(=O)(=O)c1nonc1-c1ccccc1`, the IC50 with Trypanosoma cruzi [1] was above 50 µM; in the test with Trypanosoma cruzi [2], above 50 µM; in the test on Leishmania pifanoi [3], above 50 µM; in the test on Trypanosoma cruzi [4], 7.5 µM; in the test with Leishmania braziliensis, above 50 µM.

Turning to `NC(=O)CS(=O)(=O)c1nonc1-c1ccccc1`, the IC50 in the test on Trypanosoma cruzi [1], in the test on Trypanosoma cruzi [2], in the test on Leishmania pifanoi [3] and with Leishmania braziliensis was above 50 µM each time. Besides, in the test on Trypanosoma cruzi [17], the inhibition of growth at 25 µM was determined as 27%.

For the compound `CCSCCS(=O)(=O)c1c(-c2ccccc2)no[n+]1[O-]`, the IC50 in the test with Trypanosoma cruzi [1] came to 0.9 µM; in the test with Trypanosoma cruzi [2], 3.9 µM; with Leishmania pifanoi [3], 4.6 µM; in the test with Trypanosoma cruzi [4], 7.5 µM; in the test on Leishmania braziliensis, 4 µM. The same compound registered an inhibition in test [14] of 10%.

For the compound `O=S(=O)(c1ccccc1)c1nonc1-c1ccccc1`, the IC50 in the test on Trypanosoma cruzi [1] is above 50 µM; in the test with Trypanosoma cruzi [2], above 50 µM; in the test on Leishmania pifanoi [3], above 50 µM; in the test on Trypanosoma cruzi [4], 10 µM; with Leishmania braziliensis it was above 50 µM.

For `C=CS(=O)(=O)c1c(-c2ccccc2)no[n+]1[O-]`, the IC50 is 2.6 µM with Trypanosoma cruzi [1]; 6.8 µM in the test with Trypanosoma cruzi [2]; 26.7 µM with Leishmania pifanoi [3]; 6.5 µM in the test on Trypanosoma cruzi [4]; 10 µM in the test on Leishmania braziliensis. For the same compound, the Activity in the test with Trypanosoma cruzi [6] worked out at 100%; with Trypanosoma cruzi [18] it was 33%; with Trypanosoma cruzi [15] it was 62%; in the test with Trypanosoma cruzi [12], 100%. Also, the outcome in the test with Trypanosoma cruzi [8] was Active.

On to `COc1ccccc1NCCS(=O)(=O)c1nonc1-c1ccccc1`, for which the IC50 is above 50 µM with Trypanosoma cruzi [1]; 50 µM in the test on Trypanosoma cruzi [2]; 15.8 µM in the test with Leishmania pifanoi [3]; 10 µM in the test on Trypanosoma cruzi [4]; 11.6 µM in the test on Leishmania braziliensis.

Regarding `CCSCCS(=O)(=O)c1nonc1-c1ccccc1`, the IC50 in the test on Trypanosoma cruzi [1] was above 50 µM; in the test on Trypanosoma cruzi [2], 28.7 µM; in the test on Leishmania pifanoi [3] it was above 50 µM; with Leishmania braziliensis, above 50 µM. In addition, the inhibition of growth at 25 µM with Trypanosoma cruzi [17] came to 25%.

With `NC(=O)CSc1no[n+]([O-])c1-c1ccccc1`, the IC50 in the test with Trypanosoma cruzi [1], with Trypanosoma cruzi [2], in the test with Leishmania pifanoi [3] and with Leishmania braziliensis was above 50 µM in each case. For the same compound, in the test on Trypanosoma cruzi [17], the inhibition of growth at 25 µM turned out to be 12%.

As to `NC(=O)CSc1nonc1-c1ccccc1`, the IC50 in the test on Trypanosoma cruzi [1], with Trypanosoma cruzi [2], with Leishmania pifanoi [3] and with Leishmania braziliensis was above 50 µM each time. Moreover, in the test with Trypanosoma cruzi [17], the inhibition of growth at 25 µM worked out at 17%.

`O=S(=O)(c1ccccc1)c1no[n+]([O-])c1-c1ccccc1`: the IC50 was 9.1 µM in the test with Trypanosoma cruzi [1]; above 50 µM in the test on Trypanosoma cruzi [2]; 20.5 µM with Leishmania pifanoi [3]; 7.5 µM in the test with Trypanosoma cruzi [4]; 20.2 µM with Leishmania braziliensis. Further, the inhibition in test [14] was below 1%.

The values are drawn from ChEMBL document CHEMBL1140032, “Furoxan-, alkylnitrate-derivatives and related compounds as anti-trypanosomatid agents: mechanism of action studies” (2008).
